# Experimental data published in patent US20040039053A1, “Use of(-) (3-halomethylphenoxy) (4-halophenyl) acetic acid derivatives for treatment of insulin resistance, type 2 diabetes, hyperlipidemia and hyperuricemia” (priority 2000, published 2004).
# Several values for one entry are separate records, joined by “and”; a condition that tells them apart may be missing. Identical values can stand only once. Like-named read-outs stand apart in the source and are kept apart here.
# How the values were obtained:
# [1] = Pharmacokinetic study in SD rats, chiral HPLC of plasma halofenic acids (Example 14); format: in vivo; details: single oral dose of (−) halofenate 50 mg/kg
# Experimental: Male 225-250 g SD rats were purchased from Charles River. […] A catheter was placed in the left carotid artery under sodium pentobarbital (50 mg/kg i.p.) and animals were allowed to recover for 2 days before treatment. […] The gavage volume was 5 ml/kg. Blood samples were collected at 1, 2, 4, 6, 8, 12, 24, 48, 72, 96 and 120 hours post dose. The plasma samples were analyzed for each enantiomeric acid ((−) halofenic acid and (+) halofenic acid) by a chiral specific HPLC assay, since the esters are prodrugs, which are designed to convert to their respective enantiomeric acids in vivo.
# [2] = target: CYP2C19 (Homo sapiens, UniProt P33261); assay: Cytochrome P450 isoform inhibition in human hepatic microsomes, S-mephenytoin (Example 18); format: in vitro ADME
# Chain of CYP2C19 (P33261 whole entry, canonical isoform): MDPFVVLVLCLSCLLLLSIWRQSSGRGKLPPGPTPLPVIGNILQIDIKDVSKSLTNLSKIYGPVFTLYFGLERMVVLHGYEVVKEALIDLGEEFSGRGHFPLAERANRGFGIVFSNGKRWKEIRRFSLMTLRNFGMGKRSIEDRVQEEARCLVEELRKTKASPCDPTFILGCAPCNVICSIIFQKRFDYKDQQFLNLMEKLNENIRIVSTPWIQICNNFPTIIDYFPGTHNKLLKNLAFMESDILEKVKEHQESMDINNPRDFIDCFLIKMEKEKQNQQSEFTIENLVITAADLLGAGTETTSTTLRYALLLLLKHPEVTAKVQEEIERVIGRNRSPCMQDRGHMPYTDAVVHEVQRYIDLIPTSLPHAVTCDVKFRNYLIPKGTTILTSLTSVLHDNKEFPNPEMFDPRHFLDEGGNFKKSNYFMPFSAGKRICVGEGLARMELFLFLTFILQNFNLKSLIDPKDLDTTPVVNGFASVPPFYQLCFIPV
# [3] = target: T1, CYP2A6 (Homo sapiens, UniProt P11509); details: both, 20 min
# T1 sequence (P11509 1-494): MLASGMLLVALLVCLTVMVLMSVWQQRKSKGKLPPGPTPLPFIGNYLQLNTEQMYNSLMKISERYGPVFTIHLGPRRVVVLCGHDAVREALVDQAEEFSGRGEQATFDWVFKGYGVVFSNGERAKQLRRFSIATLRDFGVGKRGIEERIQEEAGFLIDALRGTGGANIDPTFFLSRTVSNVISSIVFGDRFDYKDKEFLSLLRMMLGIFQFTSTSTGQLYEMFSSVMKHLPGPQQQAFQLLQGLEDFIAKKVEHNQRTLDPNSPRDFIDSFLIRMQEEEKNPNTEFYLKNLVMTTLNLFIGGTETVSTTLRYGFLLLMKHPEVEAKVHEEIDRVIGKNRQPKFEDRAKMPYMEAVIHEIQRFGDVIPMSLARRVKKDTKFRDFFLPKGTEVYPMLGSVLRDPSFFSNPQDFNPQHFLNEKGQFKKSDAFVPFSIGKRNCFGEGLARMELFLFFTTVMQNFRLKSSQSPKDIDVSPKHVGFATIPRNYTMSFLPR
# [4] = target: T2, CYP2C9 (Homo sapiens, UniProt P11712); details: for Tolbutamide 4-OH TB Production: both, human, 40 min
# T2 sequence (P11712 whole entry): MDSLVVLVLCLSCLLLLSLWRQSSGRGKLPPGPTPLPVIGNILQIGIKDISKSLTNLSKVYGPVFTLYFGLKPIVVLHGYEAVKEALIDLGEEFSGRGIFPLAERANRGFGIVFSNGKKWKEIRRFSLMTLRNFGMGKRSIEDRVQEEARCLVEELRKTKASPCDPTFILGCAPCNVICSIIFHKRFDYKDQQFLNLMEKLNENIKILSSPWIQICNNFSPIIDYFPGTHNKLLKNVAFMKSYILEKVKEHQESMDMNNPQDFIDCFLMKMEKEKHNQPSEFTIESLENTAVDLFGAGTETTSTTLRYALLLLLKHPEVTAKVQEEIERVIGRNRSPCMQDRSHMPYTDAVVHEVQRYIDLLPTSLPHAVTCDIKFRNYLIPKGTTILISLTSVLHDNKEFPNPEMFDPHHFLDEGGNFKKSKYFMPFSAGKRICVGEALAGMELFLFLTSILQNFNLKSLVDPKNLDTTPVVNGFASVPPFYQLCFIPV
# [5] = target: T3, CYP2E1 (Homo sapiens, UniProt P05181); details: both, 20 min
# T3 sequence (P05181 whole entry): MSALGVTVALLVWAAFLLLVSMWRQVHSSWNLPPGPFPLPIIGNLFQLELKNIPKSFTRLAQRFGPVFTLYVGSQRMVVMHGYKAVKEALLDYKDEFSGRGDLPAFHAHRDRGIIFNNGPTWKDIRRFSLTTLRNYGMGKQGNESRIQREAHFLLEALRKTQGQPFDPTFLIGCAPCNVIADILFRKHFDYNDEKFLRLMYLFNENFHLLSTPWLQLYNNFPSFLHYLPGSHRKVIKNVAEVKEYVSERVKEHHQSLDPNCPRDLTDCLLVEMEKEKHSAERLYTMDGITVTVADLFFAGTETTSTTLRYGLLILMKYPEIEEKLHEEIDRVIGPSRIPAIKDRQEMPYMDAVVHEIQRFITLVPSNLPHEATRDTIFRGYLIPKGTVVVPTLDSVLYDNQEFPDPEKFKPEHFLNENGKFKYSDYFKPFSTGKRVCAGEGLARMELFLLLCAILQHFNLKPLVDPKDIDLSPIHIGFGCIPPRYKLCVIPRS
# [6] = target: T4, CYP1A2 (Homo sapiens, UniProt P05177); assay: in vitro; details: both, microsomes
# T4 sequence (P05177 1-516): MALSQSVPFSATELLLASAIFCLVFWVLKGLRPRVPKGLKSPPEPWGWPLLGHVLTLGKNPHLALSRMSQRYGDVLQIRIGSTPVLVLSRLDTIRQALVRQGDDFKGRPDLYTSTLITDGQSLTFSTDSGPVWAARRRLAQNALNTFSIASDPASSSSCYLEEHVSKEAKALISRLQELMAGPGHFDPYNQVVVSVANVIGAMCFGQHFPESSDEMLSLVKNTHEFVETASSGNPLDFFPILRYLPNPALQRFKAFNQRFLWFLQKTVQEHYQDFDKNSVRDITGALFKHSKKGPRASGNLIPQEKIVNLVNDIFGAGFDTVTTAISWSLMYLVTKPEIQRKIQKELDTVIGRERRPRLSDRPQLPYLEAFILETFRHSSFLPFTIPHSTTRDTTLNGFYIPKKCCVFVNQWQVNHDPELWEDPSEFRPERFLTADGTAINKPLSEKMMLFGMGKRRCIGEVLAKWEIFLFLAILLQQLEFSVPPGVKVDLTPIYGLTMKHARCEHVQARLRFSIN
# [7] = target: T1, CYP2A6; assay: in vitro; details: both, microsomes
# [8] = target: T2, CYP2C9; assay: in vitro; details: both, microsomes
# [9] = target: CYP2D6 (Homo sapiens, UniProt P10635); assay: in vitro; details: both, microsomes
# Chain of CYP2D6 (P10635 whole entry): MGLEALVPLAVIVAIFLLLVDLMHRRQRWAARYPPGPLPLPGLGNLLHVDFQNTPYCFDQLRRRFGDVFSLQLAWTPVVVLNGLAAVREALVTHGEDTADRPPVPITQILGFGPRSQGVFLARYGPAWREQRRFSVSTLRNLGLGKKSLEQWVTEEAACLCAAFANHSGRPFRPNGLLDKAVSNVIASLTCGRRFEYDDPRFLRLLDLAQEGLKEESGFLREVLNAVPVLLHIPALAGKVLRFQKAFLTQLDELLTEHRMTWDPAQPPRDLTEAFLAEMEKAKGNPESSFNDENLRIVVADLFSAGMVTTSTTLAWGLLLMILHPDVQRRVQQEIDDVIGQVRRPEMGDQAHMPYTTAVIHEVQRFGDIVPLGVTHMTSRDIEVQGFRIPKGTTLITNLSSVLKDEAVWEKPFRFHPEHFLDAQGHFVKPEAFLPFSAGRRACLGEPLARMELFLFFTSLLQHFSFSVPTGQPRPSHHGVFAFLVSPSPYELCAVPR
# [10] = target: T3, CYP2E1; assay: in vitro; details: both, microsomes
# [11] = target: CYP3A4 (Homo sapiens, UniProt P08684); assay: in vitro; details: both, microsomes
# Chain of CYP3A4 (P08684 whole entry, canonical isoform): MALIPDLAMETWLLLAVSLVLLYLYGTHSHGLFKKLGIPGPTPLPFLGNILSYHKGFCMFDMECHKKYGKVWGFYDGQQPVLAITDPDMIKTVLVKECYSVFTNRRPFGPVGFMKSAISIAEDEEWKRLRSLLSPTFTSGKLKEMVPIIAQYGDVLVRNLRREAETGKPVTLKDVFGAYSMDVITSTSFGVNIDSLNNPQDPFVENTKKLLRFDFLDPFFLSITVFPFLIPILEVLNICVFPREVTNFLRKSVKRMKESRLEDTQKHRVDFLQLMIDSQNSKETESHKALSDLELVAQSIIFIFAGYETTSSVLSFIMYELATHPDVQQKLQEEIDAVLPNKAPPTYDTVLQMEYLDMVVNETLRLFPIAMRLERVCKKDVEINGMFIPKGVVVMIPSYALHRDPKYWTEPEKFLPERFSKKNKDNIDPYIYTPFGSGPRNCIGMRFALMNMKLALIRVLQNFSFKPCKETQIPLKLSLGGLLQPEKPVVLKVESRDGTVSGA
# [12] = target: T3, CYP2E1; assay: Cytochrome P450 isoform inhibition in human hepatic microsomes, chlorzoxazone (Example 18); details: 0.33 to 33.3 μM
smiles,measurement,setting,value
"O=C(O)C(Oc1cccc(C(F)(F)F)c1)c1ccc(Cl)cc1 (single isomer, unassigned; (-)) [(−) halofenic acid, (−) 4-chlorophenyl-(3-trifluoromethylphenoxy)-acetic acid]",concentration at 96 h,"[1]; male, SD, rat, plasma, oral, 50 mg/kg, individual rats 8, 11",31100 ng/mL
same,concentration at 120 h,"[1]; male, SD, rat, plasma, oral, 50 mg/kg, rat 8",20300 ng/mL
same,plasma concentration at 0 hour,"[1]; individual rats 8, 9, 11",BQL (BQL = Below Quantifiable Limit < 1.00 μg/mL)
same,plasma concentration at 1 hour,"[1]; individual rats 8, 9, 11",81.2 µg/mL and 23.7 µg/mL and 61.0 µg/mL
same,plasma concentration at 2 hours,"[1]; individual rats 8, 9, 11",100.1 µg/mL and 30.4 µg/mL and 87.8 µg/mL
same,plasma concentration at 4 hours,"[1]; individual rats 8, 9, 11",122.3 µg/mL and 36.9 µg/mL and 94.5 µg/mL
same,plasma concentration at 6 hours,"[1]; individual rats 8, 9, 11",128.3 µg/mL and 56.5 µg/mL and 116.3 µg/mL
same,plasma concentration at 8 hours,"[1]; individual rats 8, 9, 11",128.2 µg/mL and 79.0 µg/mL and 127.8 µg/mL
same,plasma concentration at 12 hours,"[1]; individual rats 8, 9, 11",135.3 µg/mL and 80.6 µg/mL and 104.8 µg/mL
same,plasma concentration at 24 hours,"[1]; individual rats 8, 9, 11",82.5 µg/mL and 73.1 µg/mL and 66.5 µg/mL
same,plasma concentration at 48 hours,"[1]; individual rats 8, 9, 11",56.2 µg/mL and 44.5 µg/mL and 47.1 µg/mL
same,plasma concentration at 72 hours,"[1]; individual rats 8, 9, 11",39.7 µg/mL and 37.4 µg/mL and 30.8 µg/mL
same,plasma concentration at 96 hours,"[1]; individual rats 8, 11",24.6 µg/mL
same,"inhibition at 30 min, 0.33 μM","[2]; both sexes, human, pooled human hepatic microsomes, probe S-mephenytoin 50 μM, test article 0.33 μM",4%
same,"inhibition at 30 min, 1 μM","[2]; both sexes, human, pooled human hepatic microsomes, probe S-mephenytoin 50 μM, test article 1.0 μM",5%
same,"inhibition at 30 min, 3.3 μM","[2]; both sexes, human, pooled human hepatic microsomes, probe S-mephenytoin 50 μM, test article 3.3 μM",15%
same,"inhibition at 30 min, 10 μM","[2]; both sexes, human, pooled human hepatic microsomes, probe S-mephenytoin 50 μM, test article 10 μM",23%
same,"inhibition at 30 min, 33.3 μM","[2]; both sexes, human, pooled human hepatic microsomes, probe S-mephenytoin 50 μM, test article 33.3 μM",43%
same,IC50,"[2]; human hepatic microsomes 1 mg/mL, 50 μM S-mephenytoin, 30 minutes, read-out: IC50, 4-hydroxymephenytoin production (CYP2C19)",> 33.3 µM
same,Coumarin 7-HC Production,[3]; 0.33 μM,33.3 ± 0.7 pmol/mg protein/min
same,Coumarin 7-HC Production,[3]; 1 μM,32.6 ± 0.7 pmol/mg protein/min
same,Coumarin 7-HC Production,[3]; 3.3 μM,32.1 ± 0.7 pmol/mg protein/min
same,Coumarin 7-HC Production,[3]; 10 μM,33.1 ± 0.7 pmol/mg protein/min
same,Coumarin 7-HC Production,[3]; 33.3 μM,32.3 ± 0.7 pmol/mg protein/min
same,IC50 for CYP2C9 in Example 18 relative to that reported in Example 7,[4],approximately three times
same,Tolbutamide 4-OH TB Production,[4]; 0.33 μM,41.0 ± 0.9 pmol/mg protein/min
same,Tolbutamide 4-OH TB Production,[4]; 1 μM,38.6 ± 0.5 pmol/mg protein/min
same,Tolbutamide 4-OH TB Production,[4]; 3.3 μM,34.2 ± 0.2 pmol/mg protein/min
same,Tolbutamide 4-OH TB Production,[4]; 10 μM,22.7 ± 0.6 pmol/mg protein/min
same,Tolbutamide 4-OH TB Production,[4]; 33.3 μM,12.7 ± 0.2 pmol/mg protein/min
same,Chlorzoxazone 6-OH CZX Production,[5]; 0.33 μM,238 ± 4 pmol/mg protein/min
same,Chlorzoxazone 6-OH CZX Production,[5]; 1 μM,244 ± 1 pmol/mg protein/min
same,Chlorzoxazone 6-OH CZX Production,[5]; 3.3 μM,239 ± 4 pmol/mg protein/min
same,Chlorzoxazone 6-OH CZX Production,[5]; 10 μM,244 ± 6 pmol/mg protein/min
same,Chlorzoxazone 6-OH CZX Production,[5]; 33.3 μM,239 ± 4 pmol/mg protein/min
same,"inhibition at 30 min, 0.33 μM",[6],1%
same,"inhibition at 30 min, 1 μM",[6],0%
same,"inhibition at 30 min, 3.3 μM",[6],-1%
same,"inhibition at 30 min, 10 μM",[6],-1%
same,"inhibition at 30 min, 33.3 μM",[6],-1%
same,"inhibition at 20 min, 0.33 μM",[7],-4%
same,"inhibition at 20 min, 1 μM",[7],-2%
same,"inhibition at 20 min, 3.3 μM",[7],0%
same,"inhibition at 20 min, 10 μM",[7],-3%
same,"inhibition at 20 min, 33.3 μM",[7],-1%
same,"inhibition at 40 min, 0.33 μM",[8],5%
same,"inhibition at 40 min, 1 μM",[8],10%
same,"inhibition at 40 min, 3.3 μM",[8],21%
same,"inhibition at 40 min, 10 μM",[8],47%
same,"inhibition at 40 min, 33.3 μM",[8],71%
same,"inhibition at 15 min, 0.33 μM",[9],3%
same,"inhibition at 15 min, 1 μM",[9],1%
same,"inhibition at 15 min, 3.3 µM",[9],6%
same,"inhibition at 15 min, 10 µM",[9],4%
same,"inhibition at 15 min, 33.3 µM",[9],5%
same,"inhibition at 20 min, 0.33 μM",[10],3%
same,"inhibition at 20 min, 1 μM",[10],1%
same,"inhibition at 20 min, 3.3 μM",[10],3%
same,"inhibition at 20 min, 10 μM",[10],1%
same,"inhibition at 20 min, 33.3 μM",[10],3%
same,"inhibition at 10 min, 0.33 µM",[11],1.5%
same,"inhibition at 10 min, 1 µM",[11],0%
same,"inhibition at 10 min, 3.3 µM",[11],1.8%
same,"inhibition at 10 min, 10 µM",[11],1.3%
same,"inhibition at 10 min, 33.3 µM",[11],1.5%
same,"inhibition of CYP2E1, in words",[12],not observed
